Test results reported in US20150197492A1, “NOVEL INDENO[1,2-c]QUINOLIN-11-ONE DERIVATIVES, PREPARATION METHOD AND APPLICATION THEREOF” (National Defense Medical Center, priority 2014, published 2015).

Experiments:
Type in all cases: cell-based
SR = assay: cells
MDA-MB-231/ATCC = assay: cells
OVCAR-8 = assay: cells
SNB-19 = assay: cells
U251 = assay: cells; details: CNS Cancer U251
ACHN = assay: cells
COLO 205 = assay: cells
K-562 = assay: cells
SK-OV-3 = assay: cells
DU-145 = assay: cells
MALME-3M = assay: cells
MCF7 = assay: cells
NCI-H322M = assay: cells
A498 = assay: cells
M14 = assay: cells
NCI-H226 = assay: cells
SNB-75 = assay: cells
[1] = system: 55 to 60 cancer cell lines; details: 10 μM
SW-620 = assay: cells
T-47D = assay: cells
UACC-62 = assay: cells
human PC-3 cells = assay: Sulforhodamine B (SRB) assay, cytotoxicity against PC-3 cells; details: SRB assay, PC-3 cells
Summary of the method: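 PC-3 cells in 5% FBS were fixed with 10% TCA after 24 h as T0, then treated with compound for 48 h, fixed, stained with 0.4% SRB in 1% acetic acid and solubilized in 10 mmol/L Trizma base. Absorbance was read at 515 nm. GI% = 100−[(Tx−T0)/(C−T0)]×100, and IC50 is the concentration halving total protein.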

SF-295 = assay: cells; details: CNS Cancer SF-295
SF-539 = assay: cells
SN12C = assay: cells
PC-3 = assay: cells
MDA-MB-468 = assay: cells
OVCAR-4 = assay: cells
NCI-H460 = assay: cells
LOX IMVI = assay: cells; details: Melanoma LOX IMV1
[2] = Homo sapiens, Breast Cancer MDA-MB-231/ATCC
[3] = Homo sapiens, K562, Leukemia K-562
[4] = Homo sapiens, Melanoma MALME-3M
[5] = Homo sapiens, Colon Cancer SW-620
[6] = Homo sapiens, CNS Cancer SF-539

## CCN(CC)CCNc1nc2ccccc2c2c1-c1ccc(Cl)cc1C2=O [SJ-3, 6-(2-(Diethylamino)ethylamino)-9-chloro-11H-indeno[1,2-c]quinolin-11-one]
SR; Homo sapiens, Leukemia SR
  GI50: 5.05 µM
  LC50 (50% lethal concentration): 11.6 µM
SR; Leukemia SR
  TGI: 4.06 µM
SR; SR (Leukemia), 10 μM, 48 hours
  growth percentage: 46.92%
MDA-MB-231/ATCC; Breast Cancer MDA-MB-231/ATCC
  TGI: 2.71 µM
MDA-MB-231/ATCC; [2]
  GI50: 2.23 µM
  LC50 (concentration giving 50% net cell kill): 5.7 µM
MDA-MB-231/ATCC; MDA-MB-231/ATCC (Breast Cancer), 10 μM, 48 hours
  growth percentage: 25.16%
OVCAR-8; Homo sapiens, Ovarian Cancer OVCAR-8
  GI50: 13.8 µM
OVCAR-8; Homo sapiens, Ovarian Cancer OVCAR-8, read-out: LC50 (the source's name)
  CC50: 7.76 µM
OVCAR-8; OVCAR-8 (Ovarian Cancer), 10 μM, 48 hours
  growth percentage: 61.36%
OVCAR-8; Ovarian Cancer OVCAR-8
  TGI: 3.63 µM
SNB-19; CNS Cancer SNB-19
  TGI: 3.42 µM
SNB-19; Homo sapiens, CNS Cancer SNB-19
  GI50: 18.2 µM
SNB-19; SNB-19 (CNS Cancer), 10 μM, 48 hours
  growth percentage: 94.02%
U251
  TGI: 3.06 µM
U251; Homo sapiens, U-251
  GI50: 11.4 µM
  LC50 (concentration killing 50% of cells): 5.88 µM
ACHN; ACHN (Renal Cancer), 10 μM, 48 hours
  growth percentage: 55.86%
ACHN; Homo sapiens, Renal Cancer ACHN
  GI50: 6.44 µM
ACHN; Homo sapiens, Renal Cancer ACHN, read-out: LC50 (the source's name)
  CC50: 5.89 µM
ACHN; Renal Cancer ACHN
  TGI: 3.04 µM
COLO 205; COLO 205 (Colon Cancer), 10 μM, 48 hours
  growth percentage: 45.69%
COLO 205; Homo sapiens, Colon Cancer COLO 205
  GI50: 2.41 µM
K-562; [3]
  GI50: 8.75 µM
  LC50 (lethal concentration, 50% cell kill): 7.46 µM
K-562; K-562 (Leukemia), 10 μM, 48 hours
  growth percentage: 45.29%
K-562; Leukemia K-562
  TGI: 3.61 µM
SK-OV-3; Homo sapiens, Ovarian Cancer SK-OV-3
  GI50: 35.9 µM
SK-OV-3; Homo sapiens, Ovarian Cancer SK-OV-3, read-out: LC50 (the source's name)
  CC50: 17.2 µM
SK-OV-3; Ovarian Cancer SK-OV-3
  TGI: 5.57 µM
SK-OV-3; SK-OV-3 (Ovarian Cancer), 10 μM, 48 hours
  growth percentage: 84.20%
DU-145; DU-145 (Prostate Cancer), 10 μM, 48 hours
  growth percentage: 65.48%
DU-145; Homo sapiens, Prostate Cancer DU-145
  GI50: 18.8 µM
DU-145; Homo sapiens, Prostate Cancer DU-145, read-out: LC50 (the source's name)
  CC50: 5.43 µM
DU-145; Prostate Cancer DU-145
  TGI: 2.94 µM
MALME-3M; [4]
  GI50: 17.3 µM
  LC50 (concentration killing 50% of cells): 7.46 µM
MALME-3M; MALME-3M (Melanoma), 10 μM, 48 hours
  growth percentage: 52.55%
MALME-3M; Melanoma MALME-3M
  TGI: 3.83 µM
MCF7; Breast Cancer MCF7
  TGI: 2.60 µM
MCF7; Homo sapiens, Breast Cancer MCF7
  GI50: 0.44 µM
MCF7; Homo sapiens, Breast Cancer MCF7, read-out: LC50 (the source's name)
  CC50: 5.54 µM
MCF7; MCF7 (Breast Cancer), 10 μM, 48 hours
  growth percentage: 12.70%
NCI-H322M; Homo sapiens, Non-Small Cell Lung Cancer NCI-H322M
  GI50: 34.5 µM
NCI-H322M; Homo sapiens, Non-Small Cell Lung Cancer NCI-H322M, read-out: LC50 (the source's name)
  CC50: 36.2 µM
NCI-H322M; NCI-H322M (Non-Small Cell Lung Cancer), 10 μM, 48 hours
  growth percentage: 69.83%
NCI-H322M; Non-Small Cell Lung Cancer NCI-H322M
  TGI: 13.10 µM
A498; A498 (Renal Cancer), 10 μM, 48 hours
  growth percentage: 88.98%
A498; Homo sapiens, Renal Cancer A498
  GI50: 8.76 µM
A498; Homo sapiens, Renal Cancer A498, read-out: LC50 (the source's name)
  CC50: 50.8 µM
A498; Renal Cancer A498
  TGI: 1.78 µM
M14; Homo sapiens, Melanoma M14
  GI50: 16.5 µM
M14; Homo sapiens, Melanoma M14, read-out: LC50 (the source's name)
  CC50: 19.3 µM
M14; M14 (Melanoma), 10 μM, 48 hours
  growth percentage: 76.44%
M14; Melanoma M14
  TGI: 5.48 µM
NCI-H226; Homo sapiens, Non-Small Cell Lung Cancer NCI-H226
  GI50: 1.88 µM
NCI-H226; NCI-H226 (Non-Small Cell Lung Cancer), 10 μM, 48 hours
  growth percentage: 80.86%
SNB-75; CNS Cancer SNB-75
  TGI: 2.35 µM
SNB-75; Homo sapiens, CNS Cancer SNB-75
  GI50: 3.25 µM
SNB-75; Homo sapiens, CNS Cancer SNB-75, read-out: LC50 (the source's name)
  CC50: 4.86 µM
SNB-75; SNB-75 (CNS Cancer), 10 μM, 48 hours
  growth percentage: 71.52%
[1]; 48 hours, all tested cell lines
  Mean (mean growth percentage of the tested cancer cell lines): 62.4%
[1]; basis for selection for the five-dose test
  cytotoxicity in the first stage (in words): potential cytotoxicity
SW-620; Colon Cancer SW-620
  TGI: 3.06 µM
SW-620; [5]
  GI50: 5.12 µM
  LC50 (concentration killing 50% of cells): 6.67 µM
SW-620; SW-620 (Colon Cancer), 10 μM, 48 hours
  growth percentage: 43.72%
T-47D; Breast Cancer T-47D
  TGI: 3.56 µM
T-47D; Homo sapiens, T47D, Breast Cancer T-47D
  GI50: 17.8 µM
T-47D; Homo sapiens, T47D, Breast Cancer T-47D, read-out: LC50 (the source's name)
  CC50: 7.19 µM
T-47D; T-47D (Breast Cancer), 10 μM, 48 hours
  growth percentage: 43.28%
UACC-62; Homo sapiens, Melanoma UACC-62
  GI50: 14.8 µM
UACC-62; Homo sapiens, Melanoma UACC-62, read-out: LC50 (the source's name)
  CC50: 6.68 µM
UACC-62; Melanoma UACC-62
  TGI: 3.31 µM
UACC-62; UACC-62 (Melanoma), 10 μM, 48 hours
  growth percentage: 99.56%
Human PC-3 cells
  Toxicity (%): 55.6%
Human PC-3 cells; 10 μM
  GI % (10 μM): 100%
SF-295
  TGI: 4.60 µM
SF-295; Homo sapiens
  GI50: 17.8 µM
  LC50 (concentration killing 50% of cells): 9.85 µM
SF-539; CNS Cancer SF-539
  TGI: 3.15 µM
SF-539; [6]
  GI50: 20.9 µM
  LC50 (concentration giving 50% net cell kill): 5.86 µM
SF-539; SF-539 (CNS Cancer), 10 μM, 48 hours
  growth percentage: 85.04%
SN12C; Homo sapiens, Renal Cancer SN12C
  GI50: 4.12 µM
SN12C; Homo sapiens, Renal Cancer SN12C, read-out: LC50 (the source's name)
  CC50: 6.16 µM
SN12C; Renal Cancer SN12C
  TGI: 2.87 µM
SN12C; SN12C (Renal Cancer), 10 μM, 48 hours
  growth percentage: 61.60%
PC-3; Homo sapiens, Prostate Cancer PC-3
  GI50: 12.5 µM
PC-3; Homo sapiens, Prostate Cancer PC-3, read-out: LC50 (the source's name)
  CC50: 8.98 µM
PC-3; PC-3 (Prostate Cancer), 10 μM, 48 hours
  growth percentage: 41.01%
PC-3; Prostate Cancer PC-3
  TGI: 3.82 µM
MDA-MB-468; Breast Cancer MDA-MB-468
  TGI: 3.07 µM
MDA-MB-468; Homo sapiens, Breast Cancer MDA-MB-468
  GI50: 1.71 µM
MDA-MB-468; MDA-MB-468 (Breast Cancer), 10 μM, 48 hours
  growth percentage: 33.81%
OVCAR-4; Homo sapiens, Ovarian Cancer OVCAR-4
  GI50: 2.99 µM
OVCAR-4; Homo sapiens, Ovarian Cancer OVCAR-4, read-out: LC50 (the source's name)
  CC50: 5.68 µM
OVCAR-4; OVCAR-4 (Ovarian Cancer), 10 μM, 48 hours
  growth percentage: 52.50%
OVCAR-4; Ovarian Cancer OVCAR-4
  TGI: 2.79 µM
NCI-H460; Homo sapiens, Non-Small Cell Lung Cancer NCI-460
  GI50: 5.15 µM
NCI-H460; Homo sapiens, Non-Small Cell Lung Cancer NCI-460, read-out: LC50 (the source's name)
  CC50: 6.74 µM
NCI-H460; NCI-H460 (Non-Small Cell Lung Cancer), 10 μM, 48 hours
  growth percentage: 25.15%
NCI-H460; Non-Small Cell Lung Cancer NCI-460
  TGI: 3.20 µM
LOX IMVI; Homo sapiens, LOX IMVI
  GI50: 6.04 µM
LOX IMVI; Homo sapiens, LOX IMVI, read-out: LC50 (the source's name)
  CC50: 6.02 µM
LOX IMVI
  TGI: 3.04 µM
